This passage reports IC50 results from PubChem BioAssay AID1645861 (Buhrlage Lab, Dana-Farber Cancer Institute and Novartis …, 2021).

The term IC50 denotes the point on the concentration scale where inhibition reaches its midpoint.

Each structure is given as a SMILES string. Activity calls are given as the source filed them.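 The calls were made as follows: active = compounds whose peak USP7 inhibition across the dose series reached 30% or more; inactive = the rest.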

Chain of Ubiquitin carboxyl-terminal hydrolase 7 (Homo sapiens) (Q93009 whole entry, looked up): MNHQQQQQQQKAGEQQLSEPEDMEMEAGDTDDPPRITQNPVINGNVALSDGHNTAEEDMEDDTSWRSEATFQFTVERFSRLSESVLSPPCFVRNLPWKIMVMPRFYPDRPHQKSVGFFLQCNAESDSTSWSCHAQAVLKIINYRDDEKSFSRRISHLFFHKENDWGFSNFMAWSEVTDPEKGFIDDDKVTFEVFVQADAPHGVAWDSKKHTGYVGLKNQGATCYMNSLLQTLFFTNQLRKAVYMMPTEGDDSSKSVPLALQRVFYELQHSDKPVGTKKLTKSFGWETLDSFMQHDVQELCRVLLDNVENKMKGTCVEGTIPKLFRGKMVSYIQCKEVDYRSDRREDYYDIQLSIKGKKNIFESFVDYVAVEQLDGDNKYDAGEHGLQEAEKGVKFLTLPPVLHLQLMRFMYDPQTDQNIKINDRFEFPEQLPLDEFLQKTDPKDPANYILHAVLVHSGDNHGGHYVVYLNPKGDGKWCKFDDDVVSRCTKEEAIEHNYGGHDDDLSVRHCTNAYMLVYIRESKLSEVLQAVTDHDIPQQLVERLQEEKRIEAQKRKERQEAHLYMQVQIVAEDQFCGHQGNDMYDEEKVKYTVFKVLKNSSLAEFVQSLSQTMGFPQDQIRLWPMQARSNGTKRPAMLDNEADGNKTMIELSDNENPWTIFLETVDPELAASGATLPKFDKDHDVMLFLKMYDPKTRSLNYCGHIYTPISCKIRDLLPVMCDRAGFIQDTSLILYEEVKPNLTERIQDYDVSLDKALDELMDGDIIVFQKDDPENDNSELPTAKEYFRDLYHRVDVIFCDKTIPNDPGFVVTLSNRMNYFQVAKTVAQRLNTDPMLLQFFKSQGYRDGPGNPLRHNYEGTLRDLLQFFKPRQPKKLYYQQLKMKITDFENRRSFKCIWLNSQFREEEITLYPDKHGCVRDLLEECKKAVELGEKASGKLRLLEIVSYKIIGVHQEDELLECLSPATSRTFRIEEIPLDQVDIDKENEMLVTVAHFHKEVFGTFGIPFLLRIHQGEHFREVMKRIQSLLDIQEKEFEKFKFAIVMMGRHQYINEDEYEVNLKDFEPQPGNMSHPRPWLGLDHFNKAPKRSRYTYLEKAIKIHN

This assay addresses Ubiquitin carboxyl-terminal hydrolase 7 (Homo sapiens) (UniProt Q93009). The assay is described as follows: Biochemical concentration-response for ubiquitin-specific peptidase 7 DUB inhibitors, verifying primary hits (AID 1645861). The settings on record: purified USP7, Ub-rhodamine cleavage fluorescence, 60 min.
Consider `COc1ccc(NC(=O)Cn2c(=O)n(-c3ccc(CC(=O)NCc4ccco4)cc3)c(=O)c3ccccc32)cc1Cl`, for which the IC50 was > 50 µM (inactive).
The figure for `Cc1ccc(NC(=O)Nc2ccc(C)n(CC(=O)Nc3ccc(C)c(C)c3)c2=O)cc1` is 38.8 µM; for `Cc1cccc(-n2ccnc(SCC(=O)Nc3ccc(Cl)cc3F)c2=O)c1` it is > 50 µM (inactive).
In the case of `O=c1c2ccccc2oc2nc(-c3cccs3)n(-c3ccccc3)c(=O)c12`, the IC50 was > 50 µM (inactive).
In the case of `CC(C)c1ccc(NC(=O)c2cc(-c3cccnc3)n[nH]2)cc1`, the IC50 was > 50 µM (inactive).
The figure for `CCOC(=O)c1cc2c(ccn2-c2ccc(F)cc2)n1CC(=O)Nc1ccc2c(c1)OCCO2` is > 50 µM (inactive); for `COc1ccc(OC)c(NC(=O)c2sc(-c3ccccc3)nc2C)c1` it is > 50 µM (inactive); for `CC(C)=CCCC1(C)C=Cc2c(O)c3c(c(CC=C(C)C)c2O1)OC12C(=CC4CC1C(C)(C)OC2(C/C=C(/C)C(=O)O)C4=O)C3=O` (centres undefined) it is 17.4 µM.
Regarding `Cn1nc(Cl)c(Cl)c1Oc1ccc(S(=O)(=O)Nc2ccc(Oc3ccc(C(F)(F)F)cn3)c(Cl)c2)cc1`, the IC50 is 46.4 µM.
For `Cc1nn(-c2ccc(F)cc2)c(C)c1S(=O)(=O)N1CCN(c2ccccn2)CC1` the value was > 50 µM (inactive); for `Cc1cc(=O)n(C)c2c(O)c3c(cc12)c(C)cc(=O)n3C`, > 50 µM (inactive); for `O=C(Cn1cccc(-c2nc(-c3ccccc3)no2)c1=O)Nc1ccccc1F`, > 50 µM (inactive).
As to `COc1ccc(NC(=O)CC(=O)c2ccc([N+](=O)[O-])cc2)cc1S(=O)(=O)Nc1ccc(Cl)cc1`, the IC50 was > 50 µM (inactive).
The figure for `CSCCC(NC(=O)c1ccccc1)c1nc2ccccc2n1CC(=O)Nc1ccccc1` (centres undefined) is > 50 µM (inactive); for `COc1cc(OC)c(NC(=O)c2cc(-c3ccccn3)n[nH]2)cc1Cl` it is > 50 µM (inactive); for `CCCCCC1OC(=O)c2c(C)cccc2Oc2ccc(O)c(C=O)c2/C=C/C1O` (centres undefined) it is > 50 µM (inactive).
Regarding `Cc1[nH]nc(NC(=O)C2COc3ccccc3O2)c1-c1ccccc1` (centres undefined), the IC50 is > 50 µM (inactive).
Turning to `O=C(CCCn1c(=O)[nH]c2cc(Cl)ccc2c1=O)NCCCN1CCCC1=O`, the IC50 was > 50 µM (inactive).
For `Cc1ccc2[nH]c(=O)c(-c3nc4ccc(C)cn4c3NCc3ccc(F)cc3)cc2c1` the value was 24.6 µM; for `O=C(CCCn1c(=O)c2sccc2n(CC(=O)NCCC2=CCCCC2)c1=O)NCc1ccc2c(c1)OCO2`, > 50 µM (inactive); for `O=C1Nc2ccccc2C(=O)C1C(c1ccc(Cl)cc1)C1C(=O)Nc2ccccc2C1=O` (centres undefined), 44.8 µM.
For `N#Cc1c(-c2ccc(Cl)cc2)cc(-c2cccc(Br)c2)[nH]c1=O`, the IC50 was > 50 µM (inactive).
In the case of `O=C(Cn1c(=O)n(CCC(=O)N2CCc3ccccc3C2)c(=O)c2ccccc21)NCc1ccccc1Cl`, the IC50 is > 50 µM (inactive).
As to `Cc1ccc(NC(=O)Cc2nnc3c(-c4nc(C5CC5)no4)cccn23)cc1`, the IC50 was 35.5 µM.
For `O=C(NC1(O)C(=O)c2ccccc2C1=O)c1cccc2c1-c1ccccc1C2=O` the value was > 50 µM (inactive); for `Cn1nc(C(=O)N2CCC(c3ccccc3)C2)c2c1-c1ccsc1CC2` (centres undefined), > 50 µM (inactive).
As for `CCc1ccc(NC(=O)C(C)OC(=O)/C=C/c2ccc(S(=O)(=O)Nc3cccc(S(N)(=O)=O)c3)cc2)cc1` (centres undefined), the IC50 is > 50 µM (inactive).
For `O=C(Cn1cc(C(=O)C(F)(F)F)c2cc(Br)ccc21)N1CCc2ccccc21` the value was > 50 µM (inactive); for `O=c1[nH]c(C2CCN(S(=O)(=O)c3ccc(S(=O)(=O)NC4CC4)cc3)CC2)nc2c1nnn2Cc1c(Cl)cccc1Cl`, > 50 µM (inactive).
With `O=C(/C=C/c1ccc(F)cc1)N1CCc2ccccc2C1`, the IC50 was > 50 µM (inactive).
The figure for `Cc1cc(C(F)(F)F)n2nc(C3CCN(C(=O)c4cnn(C)c4C)C3)cc2n1` (centres undefined) is > 50 µM (inactive); for `CCc1nc(SCC(=O)Nc2cc(Cl)ccc2C)c2oc3ccccc3c2n1` it is > 50 µM (inactive).
The figure for `CCCCCCCC1OC(=O)Cc2cc(O)c(O)c(O)c21` (centres undefined) is > 50 µM (inactive); for `O=C(NCC1(c2ccccc2)CCC1)c1nc2n(n1)-c1ccccc1S(=O)(=O)N2` it is > 50 µM (inactive).
For `CSc1ccc(CNC(=O)Cn2nc(C)c3c(C)n(-c4ccccc4)nc3c2=O)cc1` the value was 45.6 µM.
As for `CCCCCCCCCc1cc(OC(=O)c2c(CCCCCCCCC)cc(O)cc2O[C@@H]2O[C@H](CO)[C@@H](O)[C@H](O)[C@H]2O)cc(O)c1C(=O)O`, the IC50 is 5.09 µM.
Consider `Cc1cc(OCC(=O)Nc2ccccc2C(=O)Nc2ccccc2)ccc1Cl`, for which the IC50 was > 50 µM (inactive).
The figure for `O=c1cc(-c2ccc(O)c(O)c2)oc2cc(O[C@@H]3O[C@H](CO)[C@@H](O)[C@H](O)[C@H]3O)cc(O)c12` is 0.713 µM.
The figure for `Cn1c(=O)c2ncnnc2n(C)c1=O` is > 50 µM (inactive).
For `Cc1ccc(CNC(=O)CCCn2c(=O)c3sccc3n(CC(=O)Nc3cc(Cl)ccc3C)c2=O)cc1` the value was > 50 µM (inactive).
For `O=C1C=C(O)c2c(O)cccc2C1=O`, the IC50 was > 50 µM (inactive).
For `C/C=C/C=C/[C@@H]1Cc2cc(O)cc(O)c2O1` the value was > 50 µM (inactive); for `Cc1cccc(NC(=O)CSc2nc3c(cc2C#N)C(=O)CCC3)c1`, > 50 µM (inactive); for `Cc1ccc(CNC(=O)CCCn2c(=O)c3sccc3n(CC(=O)OCc3ccccc3)c2=O)cc1`, > 50 µM (inactive).
For `Cc1ccc(NC(=O)Cn2cc(C(=O)c3ccccc3)c(=O)c3cc(C)ccc32)cc1` the value was > 50 µM (inactive); for `O=C(COc1ccccc1)Nc1ccc(-c2nc3cnccc3o2)c(O)c1`, > 50 µM (inactive).
The figure for `O=C1CC(O)C(C2=CC(=O)c3c(O)cccc3C2=O)O1` (centres undefined) is 32.9 µM; for `O=C(CCCCCn1c(=O)c2sccc2n(CC(=O)c2ccc(Cl)c(Cl)c2)c1=O)NCc1ccc2c(c1)OCO2` it is > 50 µM (inactive).
`O=C(CCn1c(=O)c2ccccc2n(Cc2ccccc2F)c1=O)NCc1ccco1`: the IC50 is > 50 µM (inactive).
For `COc1ccc(-c2nc(SCC(=O)Oc3c(C)cccc3C)n3[nH]c(=O)cc3n2)cc1` the value was > 50 µM (inactive); for `Cn1c2ccccc2c(=O)c2c(=O)n(-c3cccc(Cl)c3)c(-c3cccs3)nc21`, 35.1 µM.
The figure for `COc1cc(NC(=O)Cn2c(=O)n(-c3ccc(CC(=O)NCc4ccco4)cc3)c(=O)c3ccccc32)cc(OC)c1` is > 50 µM (inactive); for `COc1ccc(Cl)cc1NC(=O)COC(=O)c1cc2ccccc2oc1=O` it is > 50 µM (inactive).
The figure for `O=C1Cc2ccccc2C(=O)N1c1ccc2c(c1)OCO2` is > 50 µM (inactive); for `C[C@H](NC(=O)Cc1ccccc1F)c1nc2cc(-c3ccccc3F)ncn2n1` it is > 50 µM (inactive); for `CCOC(=O)N1CCN(C(=O)c2ccc(NCc3ccc(F)cc3)c(S(=O)(=O)Nc3cccc(C(F)(F)F)c3)c2)CC1` it is > 50 µM (inactive).
Consider `COc1ccc2cc(C(=O)N3CCC(C(C)C(=O)NCc4cccc(F)c4)CC3)[nH]c2c1` (centres undefined), for which the IC50 is > 50 µM (inactive).
Regarding `CCCCCCCCCCCC1=C(O)C(=O)C=C(O)C1=O`, the IC50 was 14.7 µM.
As to `Cc1ccccc1NC(=O)c1nc(-c2cn(Cc3ccc(F)cc3)nn2)no1`, the IC50 is > 50 µM (inactive).
For `CCCCCCCc1cc(OC(=O)c2c(CCCCCCC)cc(O)cc2O[C@@H]2O[C@H](CO)[C@@H](O)[C@H](O)[C@H]2O)cc(O)c1C(=O)O` the value was 9.94 µM; for `Cc1cc(C(=O)NC2(O)C(=O)c3ccccc3C2=O)n(C)n1`, > 50 µM (inactive).
For `O=C(CCn1c(=O)c2ccccc2n(Cc2ccc(F)cc2Cl)c1=O)NCc1ccco1` the value was > 50 µM (inactive); for `Cc1ccc(C(=O)NC(C)c2ccccc2)cc1NC(=O)c1nsc2ccccc12` (centres undefined), > 50 µM (inactive); for `Cc1cccc(N2C(=O)/C(=C\c3cc(C#N)n(C)c3C)c3ccccc3C2=O)c1`, > 50 µM (inactive).
The figure for `O=c1[nH]c2ccc(S(=O)(=O)Nc3ccc(O)c4ccccc34)cc2[nH]1` is > 50 µM (inactive); for `Cn1c(=O)[nH]c2nncnc2c1=O` it is > 50 µM (inactive); for `O=C(Cn1c(=O)c2sccc2n(CC(=O)OCc2ccccc2)c1=O)NCc1ccccc1Cl` it is > 50 µM (inactive).
Turning to `O=C1c2c(O)ccc(O)c2C2(Oc3cccc4cccc(c34)O2)C2OC12` (centres undefined), the IC50 is > 50 µM (inactive).
For the compound `CC(NC(=O)c1ccccc1)c1nc2ccccc2n1CC(=O)Nc1ccc(C#N)cc1` (centres undefined), the IC50 was > 50 µM (inactive).
Consider `Cn1c(=O)c2nc(-c3ccc(Cl)cc3)nnc2n(C)c1=O`, for which the IC50 is > 50 µM (inactive).
`Cc1cc(=O)n(CC(=O)Nc2ccccc2C)c(Nc2ccc(F)cc2)n1`: the IC50 is > 50 µM (inactive).
The figure for `O=C(NCc1ccc2c(c1)OCO2)c1cn(-c2cccc(Cl)c2)nn1` is > 50 µM (inactive).
The figure for `Cc1ccc(NC(=O)c2ccc3nn(CC(=O)Nc4ccc(F)cc4F)c(=O)n3c2)cc1` is > 50 µM (inactive).
`CSC1SCC2C(=O)N(C)C(C(C)C(C)C)C(=O)OCC(NC(=O)c3cnc4ccccc4n3)C(=O)NC(C)C(=O)N(C)C1C(=O)N(C)C(C(C)C(C)C)C(=O)OCC(NC(=O)c1cnc3ccccc3n1)C(=O)NC(C)C(=O)N2C` (centres undefined): the IC50 is > 50 µM (inactive).
With `CCOc1ccc2c(c1)c(=O)c(C(=O)c1ccccc1)cn2CC(=O)Nc1ccc2c(c1)OCCO2`, the IC50 is > 50 µM (inactive).
On to `CC(NC(=O)c1ccccc1)c1nc2ccccc2n1CC(=O)Nc1ccc(OC(F)(F)F)cc1` (centres undefined), for which the IC50 was > 50 µM (inactive).
In the case of `CCC(=O)N1c2ccccc2NC2=C(C(=O)CC(c3ccccc3OCc3ccccc3)C2)C1c1ccccc1` (centres undefined), the IC50 was > 50 µM (inactive).
The figure for `CCOC(=O)c1ccc(Oc2sccc2[N+](=O)[O-])cc1` is 10.7 µM; for `CCOc1ccc(-c2noc(-c3nn(-c4cccc(OC)c4)ccc3=O)n2)cc1` it is > 50 µM (inactive).
